Reference: patent US20220340598A1, “PYRAZOLOPYRIDINONE COMPOUNDS” (Janssen Pharmaceutica NV, priority 2017, published 2022)
pIC50: −log10 of the molar value.

Key:
[1] = target: T1, NIH/3T3 cells overexpressing FGFR3 WT-TACC3 fusion protein (Homo sapiens, UniProt P22607); test: NIH/3T3 FGFR3 WT-TACC3 cell proliferation assay; type: cell-based; conditions: 72-hr incubation, CellTiter Glo; read-out: NIH/3T3 FGFR3 WT-TACC3 CTG (IC50)
T1 construct: fused on or other part: Q9Y6A5 (Transforming acidic coiled-coil-containing protein 3)
T1 sequence (P22607 whole entry, change not shown, the tested form may be a part): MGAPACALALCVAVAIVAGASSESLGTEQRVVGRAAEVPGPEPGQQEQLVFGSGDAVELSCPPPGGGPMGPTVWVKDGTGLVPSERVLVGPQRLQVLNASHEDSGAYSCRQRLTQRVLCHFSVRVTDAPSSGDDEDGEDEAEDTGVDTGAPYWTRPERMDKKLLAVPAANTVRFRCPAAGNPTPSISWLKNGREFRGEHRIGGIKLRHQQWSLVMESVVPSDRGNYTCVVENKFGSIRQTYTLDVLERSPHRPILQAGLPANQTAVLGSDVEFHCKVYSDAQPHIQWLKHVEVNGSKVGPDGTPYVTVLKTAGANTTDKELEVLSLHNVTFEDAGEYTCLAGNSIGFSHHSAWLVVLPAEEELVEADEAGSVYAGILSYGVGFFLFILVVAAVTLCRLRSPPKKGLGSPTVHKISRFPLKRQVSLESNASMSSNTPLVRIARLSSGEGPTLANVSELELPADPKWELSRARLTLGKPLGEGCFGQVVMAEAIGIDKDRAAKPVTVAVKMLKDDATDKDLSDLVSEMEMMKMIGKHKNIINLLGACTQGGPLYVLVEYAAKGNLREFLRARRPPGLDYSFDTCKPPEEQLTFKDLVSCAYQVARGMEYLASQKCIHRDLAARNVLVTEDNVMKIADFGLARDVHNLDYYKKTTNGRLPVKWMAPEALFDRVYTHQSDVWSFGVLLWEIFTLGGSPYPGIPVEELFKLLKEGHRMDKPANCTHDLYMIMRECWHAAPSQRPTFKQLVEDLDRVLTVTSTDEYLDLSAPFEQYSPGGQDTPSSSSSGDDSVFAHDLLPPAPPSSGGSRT
Description: NIH/3T3 FGFR3 WT-TACC3 Cell Proliferation Assay
(§1) In day 1, 90 μL of cell suspension (NIH/3T3 cells overexpressing FGFR3 WT-TACC3 fusion protein) (total 30,000 cells per well in growth medium (DMEM containing 1% Glutamax, 10% FBS and 1% Pen/Strep)) was seeded in a 96-well plate and then incubated overnight at 37° C. and 5% CO2. In day 2, 10 μL of growth medium containing 10-fold stock solution of testing compound was added into cell cultures (9 dose points with 4× serial dilution, starting with 10 μM, 0.1% DMSO final). After 72-hr incubation at 37° C. and 5% CO2, in day 5 a volume of 50 μL CellTiter Glo (CTG) reagent was added into cell-containing 96-well plate and the plate was incubated at room temperature for 10 minutes before RLUs (relative light unit) were measured on a microplate reader with luminescence detection module. The RLU value was normalized to survival % and concentration-response curve was plotted using Prism to calculate IC50 (M), pIC50 (−log IC50) and HillSlope value.

[2] = target: T2, NIH/3T3 cells overexpressing FGFR3 V555M-TACC3 fusion protein (Homo sapiens, UniProt P22607, V555M, cells depend on it); test: NIH/3T3 FGFR3 V555M-TACC3 cell proliferation assay; type: cell-based; conditions: 72-hr incubation, CellTiter Glo; read-out: NIH/3T3 FGFR3 V555M-TACC3 CTG (IC50)
T2 construct: fused on or other part: Q9Y6A5 (Transforming acidic coiled-coil-containing protein 3)
T2 sequence (P22607 whole entry V555M, the tested form may be a part): as the sequence (P22607 whole entry, change not shown, the tested form may be a part) above, with V555M counted along it
Description: NIH/3T3 FGFR3 V555M-TACC3 Cell Proliferation Assay
as §1, with “V555M-TACC3” for “WT-TACC3”

[3] = target: T3, human FGFR3 wild type enzyme (cytoplasmic domain) (Homo sapiens, UniProt P22607); test: FGFR3 wild type mobility shift assay (enzymatic assay); type: biochemical; conditions: 75 μM ATP, 50 minutes at 30° C., Caliper EZ reader II
T3 construct: human FGFR3 wild type enzyme (cytoplasmic domain, from Carna Biosciences)
T3 sequence (P22607 397-806): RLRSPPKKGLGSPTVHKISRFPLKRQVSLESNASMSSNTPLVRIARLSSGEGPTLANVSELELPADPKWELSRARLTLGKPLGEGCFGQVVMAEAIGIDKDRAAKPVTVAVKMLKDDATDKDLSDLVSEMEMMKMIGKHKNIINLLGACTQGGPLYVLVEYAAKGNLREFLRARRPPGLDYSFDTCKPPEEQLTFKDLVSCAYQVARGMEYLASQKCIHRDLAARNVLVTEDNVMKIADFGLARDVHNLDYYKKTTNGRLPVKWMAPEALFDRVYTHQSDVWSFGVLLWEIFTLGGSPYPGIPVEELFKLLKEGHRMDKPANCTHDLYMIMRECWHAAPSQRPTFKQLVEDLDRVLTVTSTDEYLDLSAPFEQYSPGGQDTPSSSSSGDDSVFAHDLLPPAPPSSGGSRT
Description: FGFR3 Wild Type Mobility Shift Assay (Enzymatic Assay)
(§2) In a final reaction volume of 25 μL, 0.04 ng/μL human FGFR3 wild type enzyme (cytoplasmic domain, from Carna Biosciences) was incubated with 75 μM ATP, 1 μM FL-peptide 30 substrate and 250 nL of testing compound (1% DMSO final) in assay buffer (100 mM HEPES pH 7.4, 10 mM MgCl2, 0.003% Brij35, 1 mM DTT). After incubation for 50 minutes at 30° C. the reaction was stopped with 10 μL of 0.5M EDTA pH 8.0, and then 25 μL of reaction mixture was transferred to reading plate and measured on Caliper EZ reader II.

[4] = target: T4, human FGFR3 V555M enzyme (cytoplasmic domain carrying V555M mutation) (Homo sapiens, UniProt P22607, V555M); test: FGFR3 V555M mobility shift assay (enzymatic assay); type: biochemical; conditions: 30 μM ATP, 45 minutes at 30° C., Caliper EZ reader II
T4 construct: human FGFR3 V555M enzyme (cytoplasmic domain carrying V555M mutation, from Carna Biosciences)
T4 sequence (P22607 397-806 V555M): as the sequence (P22607 397-806) above, with V159M counted along it
Description: FGFR3 V555M Mobility Shift Assay (Enzymatic Assay)
as §2, with “FGFR3 V555M” for “FGFR3 wild type”, “(cytoplasmic domain carrying V555M mutation,” for “(cytoplasmic domain,”, “with 30” for “with 75”, “for 45” for “for 50”

Structure (SMILES) | GI50 [1] [nM] | GI50 [2] [nM] | pIC50 [3] | pIC50 [4]
CC(C)C(Nc1c(-c2nc3ccc(C(N)=O)cc3[nH]2)c(=O)[nH]c2cn(C)nc12)c1ncccn1 (single isomer, unassigned) [Compound 9, (S*)-2-(2-methyl-7-((2-methyl-1-(pyrimidin-2-yl)propyl)amino)-5-oxo-4,5-dihydro-2H-pyrazolo[4,3-b]pyridin-6-yl)-1H-benzo[d]imidazole-6-carboxamide] | 202 | 200 | 8.36 | 9.10
CC(C)C(Nc1c(-c2nc3ccc(C(=O)N(C)C)cc3[nH]2)c(=O)[nH]c2cn(C)nc12)c1ncccn1 (single isomer, unassigned) [Compound 10, (S*)—N,N-dimethyl-2-(2-methyl-7-((2-methyl-1-(pyrimidin-2-yl)propyl)amino)-5-oxo-4,5-dihydro-2H-pyrazolo[4,3-b]pyridin-6-yl)-1H-benzo[d]imidazole-6-carboxamide] | 54.2 | 31.9 | 8.59 | 9.17
CC(C)C(Nc1c(-c2nc3cnc(N(C)C)cc3[nH]2)c(=O)[nH]c2cn(C)nc12)c1ncccn1 (single isomer, unassigned) [Compound 11, (S*)-6-(6-(dimethylamino)-1H-imidazo[4,5-c]pyridin-2-yl)-2-methyl-7-((2-methyl-1-(pyrimidin-2-yl)propyl)amino)-2H-pyrazolo[4,3-b]pyridin-5(4H)-one] | 67.1 | 50.7 | 8.17 | 8.98
COc1ccc2nc(-c3c(N[C@H](c4ncccn4)C(C)C)c4nn(C)cc4[nH]c3=O)[nH]c2c1 (single isomer, unassigned) [Compound 15, (S*)-6(5-Methoxy-1H-benzo[d]imidazol-2-yl)-2-methyl-7-((2-methyl-1-(pyrimidin-2-yl)propyl)amino)-2H-pyrazolo[4,3-b]pyridin-5(4H)-one] | 65 | 45.9 | 8.35 | 9.12
CC(C)[C@H](Nc1c(-c2nc3cnccc3[nH]2)c(=O)[nH]c2cn(C)nc12)c1ncccn1 (single isomer, unassigned) [Compound 24, (S*)-6-(1H-imidazo[4,5-c]pyridin-2-yl)-2-methyl-7-((2-methyl-1-(pyrimidin-2-yl)propyl)amino)-2H-pyrazolo[4,3-b]pyridin-5(4H)-one] | 166 | 117 | 7.87 | 8.60
COCC(Nc1c(-c2nc3cc(OC)c(OC)cc3[nH]2)c(=O)[nH]c2cn(C)nc12)c1ncccn1 (single isomer, unassigned) [Compound 25, (S*)-6-(5,6-dimethoxy-1H-benzo[d]imidazol-2-yl)-7-((2-methoxy-1-(pyrimidin-2-yl)ethyl)amino)-2-methyl-2H-pyrazolo[4,3-b]pyridin-5(4H)-one] | 357 | 359 | 7.81 | 8.58
COc1cc2nc(-c3c(NC(c4ncccn4)C(C)C)c4nn(C)cc4[nH]c3=O)[nH]c2cc1OC (single isomer, unassigned) [Compound 27, (S*)-6-(5,6-dimethoxy-1H-benzo[d]imidazol-2-yl)-2-methyl-7-((2-methyl-1-(pyrimidin-2-yl)propyl)amino)-2H-pyrazolo[4,3-b]pyridin-5(4H)-one] | 40.2 | 31.2 | 8.32 | 8.94
CC[C@H](Nc1c(-c2nc3ccc(OCCOC)cc3[nH]2)c(=O)[nH]c2cn(C)nc12)c1ncccn1 (single isomer, unassigned) [Compound 48, (S*)-6(6-(2-methoxyethoxy)-1H-benzol-2-yl)-2-methyl-7-((1-(pyrimidin-2-yl)propyl)amino)-2H-pyrazolo[4,3-b]pyridin-5(4H)-one] | 17.1 | 112 | 8.84 | 9.20
